pEC50: −log10 of the molar value.
Biological target: T1, TLR7 (Homo sapiens, UniProt Q9NYK1)
T1 construct: host or cells: HEK-Blue cells (human HEK) co-expressing TLR7 and an NF-kB/AP1-inducible SEAP reporter
T1 sequence (Q9NYK1 27-1049): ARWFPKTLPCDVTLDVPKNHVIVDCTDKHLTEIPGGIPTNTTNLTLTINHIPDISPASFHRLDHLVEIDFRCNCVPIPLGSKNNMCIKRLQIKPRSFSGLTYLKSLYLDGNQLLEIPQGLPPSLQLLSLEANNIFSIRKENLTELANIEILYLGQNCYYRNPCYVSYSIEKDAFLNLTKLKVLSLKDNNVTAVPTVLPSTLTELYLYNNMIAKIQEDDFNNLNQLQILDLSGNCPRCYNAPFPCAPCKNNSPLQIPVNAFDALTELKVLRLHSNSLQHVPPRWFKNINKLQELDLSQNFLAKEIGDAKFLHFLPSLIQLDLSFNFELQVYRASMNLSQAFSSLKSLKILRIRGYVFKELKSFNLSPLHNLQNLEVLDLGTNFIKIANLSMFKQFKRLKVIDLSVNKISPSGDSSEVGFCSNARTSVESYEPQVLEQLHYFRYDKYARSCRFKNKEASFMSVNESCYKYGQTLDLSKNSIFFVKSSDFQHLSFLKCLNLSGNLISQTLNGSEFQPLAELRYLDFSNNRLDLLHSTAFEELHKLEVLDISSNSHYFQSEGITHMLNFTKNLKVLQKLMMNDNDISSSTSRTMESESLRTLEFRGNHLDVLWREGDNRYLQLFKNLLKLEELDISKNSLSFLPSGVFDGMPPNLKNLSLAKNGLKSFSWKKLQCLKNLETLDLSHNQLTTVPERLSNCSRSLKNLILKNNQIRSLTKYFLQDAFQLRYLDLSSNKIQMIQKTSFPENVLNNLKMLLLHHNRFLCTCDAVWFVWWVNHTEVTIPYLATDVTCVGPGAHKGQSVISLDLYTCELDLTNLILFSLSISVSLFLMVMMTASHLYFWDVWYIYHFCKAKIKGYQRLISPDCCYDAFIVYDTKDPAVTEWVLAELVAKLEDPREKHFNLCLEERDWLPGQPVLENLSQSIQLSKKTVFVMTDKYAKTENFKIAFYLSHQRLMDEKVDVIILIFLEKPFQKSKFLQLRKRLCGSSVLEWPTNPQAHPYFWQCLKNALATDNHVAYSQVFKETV
Test: In vitro human TLR7 binding reporter assay (HEK-Blue, NF-kB/AP1-inducible SEAP)
Type: cell-based
Settings: activity range symbols
How it was run: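 Reporter cells are plated at 15,000 per well and rested 24 h. Next day, test compounds or DMSO are dispensed, followed by 18 h incubation at 37 °C, 5% CO2.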

Row | SMILES | pEC50
1 | CCC(=O)N(CC)Cc1nc2c(N)nc3cc(-c4ccn[nH]4)ccc3c2n1CC [Compound 473, N-{[4-amino-1-ethyl-7-(1H-pyrazol-5-yl)-1H-imidazo[4,5-c]quinolin-2-yl]methyl}-N-ethylpropanamide] | < 4.00
2 | CCN(Cc1nc2c(N)nc3cc(-c4ccn[nH]4)ccc3c2n1CC)C(C)=O [Compound 474, N-{[4-amino-1-ethyl-7-(1H-pyrazol-5-yl)-1H-imidazo[4,5-c]quinolin-2-yl]methyl}-N-ethylacetamide] | < 4.00
3 | CCC(=O)N(CC)Cc1nc2c(N)nc3cc(-c4ccn[nH]4)ccc3c2n1CCO [Compound 475, N-{[4-amino-1-(2-hydroxyethyl)-7-(1H-pyrazol-5-yl)-1H-imidazo[4,5-c]quinolin-2-yl]methyl}-N-ethylpropanamide] | < 4.00
4 | CCN(Cc1nc2c(N)nc3cc(-n4cccn4)ccc3c2n1CCO)C(C)=O [Compound 476, N-{[4-amino-1-(2-hydroxyethyl)-7-(1H-pyrazol-1-yl)-1H-imidazo[4,5-c]quinolin-2-yl]methyl}-N-ethylacetamide] | < 4.00
5 | CCNCc1nc2c(N)nc3cc(-n4cccn4)ccc3c2n1CCO [Compound 477, 2-[4-amino-2-[(ethylamino)methyl]-7-(1H-pyrazol-1-yl)-1H-imidazo[4,5-c]quinolin-l-yl]ethan-1-ol] | < 4.00
6 | CCC(=O)N(CC)Cc1nc2c(N)nc3cc(-n4cccn4)ccc3c2n1CCO [Compound 478, N-{[4-amino-1-(2-hydroxyethyl)-7-(1H-pyrazol-1-yl)-1H-imidazo[4,5-c]quinolin-2-yl]methyl}-N-ethylpropanamide] | < 4.00
7 | CCN(Cc1nc2c(N)nc3cc(-n4cccn4)ccc3c2n1CC)C(C)=O [Compound 479, N-{[4-amino-1-ethyl-7-(1H-pyrazol-1-yl)-1H-imidazo[4,5-c]quinolin-2-yl]methyl}-N-ethylacetamide] | < 4.00

More lines, now with the values ahead:

Row | pEC50 | SMILES
8 | < 4.00 | CCC(=O)N(CC)Cc1nc2c(N)nc3cc(-c4cccs4)ccc3c2n1CC [Compound 480, N-{[4-amino-1-ethyl-7-(thiophen-2-yl)-1H-imidazo[4,5-c]quinolin-2-yl]methyl}-N-ethylpropanamide]
9 | < 4.00 | CCC(=O)N(CC)Cc1nc2c(N)nc3cc(-n4cccn4)ccc3c2n1CC [Compound 481, N-{[4-amino-1-ethyl-7-(1H-pyrazol-1-yl)-1H-imidazo[4,5-c]quinolin-2-yl]methyl}-N-ethylpropanamide]
10 | < 4.00 | CCN(Cc1nc2c(N)nc3cc(-c4cccs4)ccc3c2n1CCO)C(C)=O [Compound 482, N-{[4-amino-1-(2-hydroxyethyl)-7-(thiophen-2-yl)-1H-imidazo[4,5-c]quinolin-2-yl]methyl}-N-ethylacetamide]

Source: patent US12351580B2, “NLRP3 modulators” (Innate Tumor Immunity, Inc., priority 2017, dated 2025)
